Here are results for 1 molecule from ChEMBL document CHEMBL1148356, “Synthesis and biological evaluation of 3-heterocyclyl-7,8,9,10-tetrahydro-(7,10-ethano)-1,2,4-triazolo[3,4-a]phthalazines and analogues as subtype-selective inverse agonists for the GABA(A)alpha5 benzodiazepine binding site” (J Med Chem, 2004).

The test system of this assay is Rattus norvegicus. The experiment in a line: Tested for cognitive performance in rats in delayed matching-to-place version of water maze test at 0.3 mg/kg i.p.; Enhanced performance. The arrangement: dose 0.3 mg/kg. In kind it is functional, organism-based.

Calls of active or inactive are those of the source. The rule behind the calls is not given here.

Regarding `CC1(C)CC(=O)c2c(SCCO)sc(-c3nccs3)c2C1`, the result was Active.
